Measurements taken from patent publication US20210128537A1, “T-TYPE CALCIUM CHANNEL MODULATORS AND METHODS OF USE THEREOF” (Praxis Precision Medicines, inc., priority 2016, published 2021).
Like-named read-outs stand apart in the source and are kept apart here.

What was measured:
[1] = molecular target: hCaV3.2 (Homo sapiens, UniProt O95180); assay: Inactivated channel state FLIPR assay, concentration-dependent inhibition of hCaV3.2; type: cell-based; details: for slope of the concentration-inhibition curve: logistic function fit; for IC50: hCaV3.2, inactivated channel state FLIPR, n=4 wells per concentration
hCaV3.2, sequence (O95180 whole entry): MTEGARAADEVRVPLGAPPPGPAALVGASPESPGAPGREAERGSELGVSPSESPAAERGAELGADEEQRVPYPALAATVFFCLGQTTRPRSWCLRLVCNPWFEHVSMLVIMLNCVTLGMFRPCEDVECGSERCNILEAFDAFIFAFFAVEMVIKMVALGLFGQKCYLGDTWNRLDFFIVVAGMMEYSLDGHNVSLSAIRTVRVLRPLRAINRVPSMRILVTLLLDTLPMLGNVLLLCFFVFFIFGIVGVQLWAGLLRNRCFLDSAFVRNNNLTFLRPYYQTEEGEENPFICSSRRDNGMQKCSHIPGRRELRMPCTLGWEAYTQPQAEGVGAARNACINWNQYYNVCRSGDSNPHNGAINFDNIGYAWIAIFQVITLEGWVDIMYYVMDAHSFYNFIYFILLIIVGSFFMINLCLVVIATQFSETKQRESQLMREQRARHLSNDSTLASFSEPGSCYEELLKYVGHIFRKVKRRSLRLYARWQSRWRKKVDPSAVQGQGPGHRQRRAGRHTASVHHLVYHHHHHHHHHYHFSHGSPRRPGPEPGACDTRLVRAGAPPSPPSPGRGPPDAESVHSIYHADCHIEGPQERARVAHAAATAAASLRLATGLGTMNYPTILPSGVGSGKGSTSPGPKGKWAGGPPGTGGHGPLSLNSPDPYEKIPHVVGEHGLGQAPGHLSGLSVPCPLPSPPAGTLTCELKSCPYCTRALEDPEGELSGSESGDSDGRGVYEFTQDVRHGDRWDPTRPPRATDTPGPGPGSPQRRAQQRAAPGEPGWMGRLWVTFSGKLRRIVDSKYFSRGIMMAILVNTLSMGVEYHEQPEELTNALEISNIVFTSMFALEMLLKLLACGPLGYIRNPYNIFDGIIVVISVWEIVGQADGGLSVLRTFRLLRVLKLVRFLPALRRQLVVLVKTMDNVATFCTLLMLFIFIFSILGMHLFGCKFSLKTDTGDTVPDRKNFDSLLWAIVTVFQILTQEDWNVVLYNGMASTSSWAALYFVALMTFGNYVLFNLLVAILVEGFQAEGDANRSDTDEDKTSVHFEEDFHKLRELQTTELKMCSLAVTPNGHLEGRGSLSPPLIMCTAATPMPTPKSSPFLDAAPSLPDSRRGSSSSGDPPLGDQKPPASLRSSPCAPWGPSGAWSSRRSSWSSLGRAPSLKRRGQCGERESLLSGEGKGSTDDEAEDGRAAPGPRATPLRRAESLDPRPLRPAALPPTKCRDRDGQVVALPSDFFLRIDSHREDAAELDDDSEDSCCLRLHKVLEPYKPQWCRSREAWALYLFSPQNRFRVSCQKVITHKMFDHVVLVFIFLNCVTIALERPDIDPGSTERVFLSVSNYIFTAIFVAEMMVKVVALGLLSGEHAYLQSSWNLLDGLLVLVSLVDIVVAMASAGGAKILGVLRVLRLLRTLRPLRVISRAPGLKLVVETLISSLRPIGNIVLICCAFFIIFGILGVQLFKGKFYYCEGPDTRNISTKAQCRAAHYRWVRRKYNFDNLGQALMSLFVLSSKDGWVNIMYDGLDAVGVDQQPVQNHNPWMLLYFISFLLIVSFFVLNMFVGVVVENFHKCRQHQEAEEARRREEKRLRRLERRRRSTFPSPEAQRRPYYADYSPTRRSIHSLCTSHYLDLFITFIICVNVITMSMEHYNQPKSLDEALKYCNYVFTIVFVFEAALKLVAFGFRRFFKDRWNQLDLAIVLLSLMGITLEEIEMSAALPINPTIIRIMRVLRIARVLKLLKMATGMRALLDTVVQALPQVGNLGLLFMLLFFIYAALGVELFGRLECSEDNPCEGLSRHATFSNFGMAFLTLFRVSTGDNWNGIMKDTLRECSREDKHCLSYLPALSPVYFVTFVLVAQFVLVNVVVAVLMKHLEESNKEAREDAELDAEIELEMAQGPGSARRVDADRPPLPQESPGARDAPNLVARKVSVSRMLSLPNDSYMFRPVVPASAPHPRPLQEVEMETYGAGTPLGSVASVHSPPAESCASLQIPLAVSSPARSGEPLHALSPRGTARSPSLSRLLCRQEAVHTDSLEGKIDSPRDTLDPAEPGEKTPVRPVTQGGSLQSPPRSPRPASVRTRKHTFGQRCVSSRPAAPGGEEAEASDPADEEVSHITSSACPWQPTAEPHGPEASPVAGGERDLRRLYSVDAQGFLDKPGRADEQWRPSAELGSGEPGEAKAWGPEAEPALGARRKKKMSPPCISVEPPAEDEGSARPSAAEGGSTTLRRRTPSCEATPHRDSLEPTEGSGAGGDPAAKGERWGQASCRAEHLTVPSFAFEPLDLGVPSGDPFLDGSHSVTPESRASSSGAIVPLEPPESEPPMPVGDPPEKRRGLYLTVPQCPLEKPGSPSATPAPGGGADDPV

[2] = test system: absence seizures in patients; details: cited from earlier work
[3] = test system: fully kindled rats; assay: Amygdala kindling model, anti-seizure testing in fully kindled rats; type: in vivo, rat; details: for primary after discharge: all four doses of Z944, ETX 100 mg/kg, compared to vehicle (p>0.5)
Procedure: Animals were implanted with EEG recording electrodes and with a stimulating bipolar electrode in the left basolateral amygdaloid nucleus using the coordinates AP±3.0 mm, ML±5.9 mm, DV±6.0 mm. The after discharge threshold (ADT) for each animal was determined by administering a stimulation (frequency=60.1 Hz; duration=1000 μs) at one minute intervals until a seizure was clicited. The amplitude of the stimulation was started at 0.02 mA with increments of 0.02 mA; the stimulations were stopped when the animal experienced a seizure of ≥6 second duration, or if the amplitude of 0.40 mA was reached without the occurrence of a seizure. […] Kindling was performed twice a day for five days per week with an endpoint of 30 stimulations or until the animal presented five class V seizures (referred to as fully kindled). The seizure severity was classified from 0 (less severe) to V (most severe) according to the Racine Scale (Racine, 1972b). Sham kindled animals were handled the same way as the kindled animals, although no electrical stimulation was applied. An animal is classified as fully kindled once it has experienced 5 class V seizures.
Drug testing was performed twice a week until all animals had received each of the seven treatments, Z944 (5 mg/kg, 10 mg/kg, 30 mg/kg and 100 mg/kg), vehicle (10% DMSO/90% Na^+-CMC or CBZ vehicle 20% DMSO/40% propylene glycol/40% saline), ETX (100 mg/kg) or CBZ (30 mg/kg). Prior to drug testing each day, animals were subjected to a maximum of three pre-drug stimulations 30 minutes apart. The animals qualified for testing on that particular day if a class IV or V seizure was elicited in at least 2 out of 3 pre-drug stimulations. Stimulations consisted of a 1 second train of 1 ms biphasic square wave pulses at a frequency of 60 Hz with current amplitude based on each animal ADT that elicited a seizure. Thirty minutes after the last pre-drug stimulation, the animals received an IP injection of one of the seven treatments in a randomized manner at a dose volume of 5 ml/kg. Six post-drug stimulations were administered to each animal, the first stimulation was given 15 minutes post drug injection (to allow brain penetration of the drugs) and the following five stimulations were delivered in 30 minutes intervals thereafter with the seizure class elicited being recorded after each post-drug stimulation. The duration of the primary and total seizures, if any, were recorded. An investigator blinded to the drug treatment analyzed all EEG recordings. Primary after discharge is the duration of the seizure elicited from the kindling stimulation. Total after discharge is the total seizure duration including any secondary seizures that occur after the primary after discharge. Primary after discharge duration and total seizure duration were recorded and averaged for the 6 post-drug stimulations.
Animal weight and behaviour when handled were monitored for the duration of the experimental period. Additionally, animals were assessed by observation for any adverse effects of drugs on grooming, fur appearance, gait, and excretion.

[4] = test system: post-SE rats; assay: Morris water maze in post-SE rats; type: in vivo, rat; details: Z944 60 mg/kg/day, levetiracetam 200 mg/kg/day for 4 weeks
Procedure: All behavioural tests were performed in a light-controlled (˜110 lux), closed, quiet and clean room in the. Behavioural testing was performed in a blinded manner to the treatment groups. All of the behavioural tests were video recorded for future analysis. OF, EPM and MWM sessions were filmed using a digital camera mounted above the centre of the arena, which was connected to a computer for the recording and objective analysis of digitized behavioural tests (EthoVision 3.0.15, Noldus). The first behavioural test was performed one week after the last EEG recording. The different behavioural tests/session were performed 24 hours apart from each other. All tests were scored by an experienced observer who was blind to the experimental conditions of the animals.
The MWM is a circular black PVC plastic pool of 160 cm diameter which is filled to a depth of either 2.5 cm above a 10 cm diameter hidden platform water at 25±1° C. The platform is located in the centre of the South-West quadrant during the first 3 sessions and changed to North-East quadrant for the remaining sessions. Visual cues are placed in the main 4 cardinal points, consisting of large black and white symbols that serve as orientation landmarks for the rats. […] The latency to find the escape platform, speed and strategic path used by the animal to locate the platform are recorded. […]

[5] = test system: post-SE rats; assay: Kainic acid induced post-status epilepticus model, video-EEG seizure analysis; type: in vivo, rat; details: osmotic pump 4 weeks; Z944 60 mg/kg/day, levetiracetam 200 mg/kg/day
Procedure: Pumps were filled with either Z944 to deliver a daily dose of 60 mg/kg, levetiracetam to deliver a daily dose of 200 mg/kg or vehicle. For the drug tolerability study, osmotic pumps continuously either Z944, levetiracetam or vehicle for 7 days and for the post-SE study osmotic pumps delivered continuously the different treatments for 28 days.
FIG. 11 summarizes the different methods used on this experimental paradigm.
Animals were implanted with subdural EEG recording electrodes and one week after surgery, the animals were connected using cables that allowed them free movement around their cage. A repeated low dose KA administration protocol was used. Rats were injected i.p. with an initial dose of KA 7.5 mg/kg plus 3 ml of normal saline to prevent dehydration. Animals were monitored for 45 minutes for EEG and behavioural seizures based on the Racine scale. […] This was repeated up to 2 times every 45 minutes. An animal was eliminated from the experiment if it didn't show a stable self-sustained SE after a maximum KA total dose of 15 mg/kg. Two sham groups were treated identically but received saline injections instead of KA. After four hours of sustained electroencephalographic and behavioural seizures the animals were randomly allocated to one of the five treatment groups: sham+vehicle (n=6), sham+Z944 (n=6), post-SE+vehicle (n=8), post-SE+Z944 (n=8), post-SE+levetiracetam (n=9).
Animals were anesthetized and implanted with subcutaneous osmotic pumps containing either vehicle Z944 (60 mg/kg/day), or levetiracetam (200 mg/kg/day) that delivered the treatment continuously for 4 weeks. Immediately after the pump implantation, SE was stopped with diazepam (5 mg/kg/dose).
vEEG recordings commenced at least 4 h prior the induction of SE to provide baseline recordings. The video-EEG recordings continued for the whole duration of the treatment period, i.e. four weeks after the termination of the SE. […] EEG analysis was performed in a blinded manner and confirmed by two different observers. All EEG recordings were visually and manually annotated using Profusion 3 software. A seizure was defined as an episode of rhythmic spiking activity that was three times the baseline amplitude and a frequency >5 Hz that lasted at least 10 s. The end of a seizure was determined as the last spike. The average number of seizures per day, average seizure duration and seizure class (severity) were analysed.

For `CCCC(CCC)C(=O)[O-].[Na+]` [Valproate, sodium valproate], the “slope of the concentration-inhibition curve” value [1] is listed as 4.4, the “patients whose seizures were completely controlled” value ([2]; at 12 months) is listed as 44% and the “patients whose seizures were completely controlled” value ([2]; at 16 weeks, video-EEG recordings) is listed as 58%.
In the case of `CCC1(C)CC(=O)NC1=O` (stereo not drawn) [Ethosuximide, ethosuximide, reference compound], the IC50 [1] is reported as 70 mM and the primary after discharge ([3]; IP, CBZ 30 mg/kg) is reported as “did not affect the primary after discharge”.
For `CC[C@@H](C(N)=O)N1CCCC1=O` [levetiracetam, reference compound], the “time to find the hidden platform (cognition)” value [4] was “took significantly longer to find the hidden platform” and the “neurological adverse effects after prolonged treatment” value [5] was “only transient and minor neurological adverse effects”.
With `CC(C)(C)NC(=O)CN1CCC(CNC(=O)c2cccc(Cl)c2)CC1` [Z941] the IC50 [1] was 0.00012 mM and the “slope of the concentration-inhibition curve” value [1] was 0.8.
With `NC(=O)N1c2ccccc2C=Cc2ccccc21` [Carbamazepine, carbamazepine, reference compound] the “seizure class elicited (Racine scale)” value ([3]; IP, Z944 5, 10, 30, 100 mg/kg, CBZ 30 mg/kg, compared to vehicle) was “significantly reduced the class of seizure elicited”, the primary after discharge ([3]; IP, CBZ 30 mg/kg) was “did not affect the primary after discharge” and the “adverse effects (sedation scale 0-4) compared to vehicle” value ([3]; Z944 100 mg/kg, CBZ 30 mg/kg IP, p<0.01) was “significantly higher adverse effects”.
